Results as given in patent publication US6759228B2, “Alkaline protease” (Kao Corporation, priority 1997, dated 2004).
Read-outs that look alike come from different tables or passages of the source. *1 amine or outer side, *2 acyl side, *3 side chain or, on linkers, in order; H or OH if unused. Where a SMILES comes first, the peptide text is derived from it. CO = O=C([*:1])[*:2]

Assays:
KP43 protease [1] = assay type: biochemical, Bacillus sp. KSM-KP43
KP9860 protease [2] = assay type: biochemical, Bacillus sp. KSM-KP9860
KP1790 protease [3] = assay: Effects of metal ions: residual activity, casein method; assay type: biochemical, Bacillus sp. KSM-KP1790
KP43 protease [4] = assay type: biochemical, Bacillus sp. KSM-KP43; conditions: pH 7
KP1790 protease [5] = assay type: biochemical, Bacillus sp. KSM-KP1790; conditions: pH 7
KP9860 protease [6] = assay: Effects of inhibitors: residual activity, casein method; assay type: biochemical, Bacillus sp. KSM-KP9860
[7] = system: all three kinds of proteases (KP43, KP1790, KP9860); assay type: biochemical, Bacillus sp.; conditions: pH 7
KP43 protease [8] = assay: Effects of surface active agents: residual activity, casein method; assay type: biochemical, Bacillus sp. KSM-KP43; conditions: 1% surfactant, 100 mM borate buffer (pH 10.0), 40° C., 4 hours; no treatment = 100%
Method: (§1) After 1 mL of 50 mmol/L of various buffer solutions containing 1% (w/v) Casein (Hammerstein: product of Merck Inc.) was maintained at 40° C. for 5 minutes, 0.1 mL of an enzyme solution was added to the solution, followed by incubation at 40° C. for 10 minutes. 2 mL of a TCA solution (0.11 mol/L trichloroacetic acid: 0.22 mol/L sodium acetate: 0.33 mol/L acetic acid) was added to stop the reaction and the mixture was left to stand at room temperature for 10 minutes. Subsequently, acid-denatured protein was filtered (No. 2 filter paper: product of Whattmann). To 0.5 mL of the filtrate, 2.5 mL of alkaline copper reagent (1% (w/v) sodium potassium tartrate: 1% (w/v) copper sulfate: 2% (w/v) sodium carbonate, 0.1 mol/L sodium hydroxide=1:1:100 (v/v)) was added, and after the solution was maintained at 30° C. for 10 minutes, 0.25 mL of diluted phenol reagent (phenol reagent (product of Kanto Chemical) diluted two-fold with deionized water) was added, and after being maintained at 30° C. for 30 minutes, the solution was subjected to an absorbance measurement at 660 nm. The following solution was used as a blank: to the above-described system of enzyme reaction, a reaction termination solution was mixed and then the enzyme solution was added.
(§2) An enzyme solution (7.0×10^−4 mP. U.) was added to 100 mmol/L boric acid buffer solution containing dissolved surfactants in an amount of 1%, and the resultant solution was incubated at 40° C. for 4 hours. The solution was diluted 20-fold with 50 mmol/L boric acid buffer solution (pH 10.0), and residual activity was measured using casein as a substrate.
(§3) Each protease was treated with a variety of 1% surface active agent at 40° C. for 4 hours in […], and residual activity was measured. […] Accordingly, the enzymes are considered to be useful as a detergent component containing surfactants.

KP1790 protease [9] = assay: as above; assay type: biochemical, Bacillus sp. KSM-KP1790; conditions: 1% surfactant, 100 mM borate buffer (pH 10.0), 40° C., 4 hours; no treatment = 100%
KP9860 protease [10] = assay: as above; assay type: biochemical, Bacillus sp. KSM-KP9860; conditions: 1% surfactant, 100 mM borate buffer (pH 10.0), 40° C., 4 hours; no treatment = 100%
Method: as §1, §2, §3

[11] = system: 3 kinds of proteases (KP43, KP1790, KP9860); assay: Effects of metal ions, summary for the 3 kinds of proteases; assay type: biochemical, Bacillus sp.; conditions: 1 mmol/L metal salt, 20 mmol/L boric acid buffer (pH 10), 30° C., 20 minutes
[12] = inhibitor 0.1 mM, 10 mmol/L phosphoric acid buffer (pH 7.0), 30° C., 20 minutes, no inhibitor = 100%
[13] = inhibitor 5 mM, 10 mmol/L phosphoric acid buffer (pH 7.0), 30° C., 20 minutes, no inhibitor = 100%
[14] = 1 mM metal salt, 20 mM borate buffer (pH 10.0), 30° C., 20 minutes, no metal salt = 100%

## [Ca+2].[Cl-].[Cl-] [CaCl2, calcium chloride]
KP43 protease [1]; pH 10
  Residual activity (%) KP43: 97%
KP9860 protease [2]; pH 10
  Residual activity (%) KP9860: 101%
KP1790 protease [3]; pH 10
  Residual activity (%) KP1790: 95%

## CC(C)C[C@H](NC(=O)N[C@H](C(=O)N[C@@H](CCC(N)=O)C(=O)N[C@@H](C)C=O)[C@@H]1CCNC(=N)N1)C(=O)O [Elastatinal]
KP43 protease [4]
  Residual activity (%) KP43: 99%
KP1790 protease [5]
  Residual activity (%) KP1790: 102%
KP9860 protease [6]; [12]
  Residual activity (%) KP9860: 102%

## CC(=O)N[C@@H](CC(C)C)C(=O)N[C@@H](CC(C)C)C(=O)N[C@H](C=O)CCCNC(=N)N [Leupeptin]
KP43 protease [4]
  Residual activity (%) KP43: 102%
KP1790 protease [5]
  Residual activity (%) KP1790: 101%
[7]
  effect of inhibitor on activity: not found
KP9860 protease [6]; pH 7
  Residual activity (%) KP9860: 93%

## O=C(O)CN(CCN(CC(=O)O)CC(=O)O)CC(=O)O [EDTA, ethylenediaminetetraacetic acid]
KP43 protease [4]
  Residual activity (%) KP43: 110%
KP1790 protease [5]
  Residual activity (%) KP1790: 97%
KP9860 protease [6]; [13]
  Residual activity (%) KP9860: 101%

## [Cl][Cu][Cl] [CuCl2]
KP43 protease [1]; [14]
  Residual activity (%) KP43: 91%
KP9860 protease [2]; [14]
  Residual activity (%) KP9860: 94%
KP1790 protease [3]; [14]
  Residual activity (%) KP1790: 96%

## CC(C)[C@H](NC(=O)[C@H](CCCNC(=N)N)NC(=O)N[C@@H](Cc1ccccc1)C(=O)O)C(=O)N[C@H](C=O)CCCNC(=N)N [Antipine] ({Phe-CO}-Arg-Val-Arg-aldehyde)
KP43 protease [4]
  Residual activity (%) KP43: 103%
KP1790 protease [5]
  Residual activity (%) KP1790: 99%
[7]
  effect of inhibitor on activity: not found
KP9860 protease [6]; [12]
  Residual activity (%) KP9860: 97%

## CCCCCCCCCCCCOS(=O)(=O)[O-].[Na+] [Na dodecyl sulfate (SDS), Na dodecyl sulfate]
KP43 protease [8]
  Residual activity KP43: 104%
KP1790 protease [9]
  Residual activity KP1790: 97%
KP9860 protease [10]
  Residual activity KP9860: 103%

## O=C(O)c1cc[c]([Hg][Cl])cc1 [PCMB, p-chloromercury benzoate]
KP43 protease [4]
  Residual activity (%) KP43: 125%
KP1790 protease [5]
  Residual activity (%) KP1790: 115%
KP9860 protease [6]; pH 7
  Residual activity (%) KP9860: 126%

## O=S(=O)(F)Cc1ccccc1 [PMSF, phenylmethanesulfonyl fluoride]
KP43 protease [4]
  Residual activity (%) KP43: 0%
KP1790 protease [5]
  Residual activity (%) KP1790: 0%
[7]
  effect of inhibitor on activity: inhibited
KP9860 protease [6]; pH 7
  Residual activity (%) KP9860: 0%

## Na alkyl sulfate [Na alkyl sulfate (AS)]
KP43 protease [8]
  Residual activity KP43: 113%
KP1790 protease [9]
  Residual activity KP1790: 107%
KP9860 protease [10]
  Residual activity KP9860: 107%

## [Cl-].[Cl-].[Mg+2] [MgCl2]
KP43 protease [1]; [14]
  Residual activity (%) KP43: 92%
KP9860 protease [2]; [14]
  Residual activity (%) KP9860: 100%
KP1790 protease [3]; [14]
  Residual activity (%) KP1790: 103%

## α-Sulfofatty acid ester [α-Sulfofatty acid ester (α-SFE)]
KP43 protease [8]
  Residual activity KP43: 112%
KP1790 protease [9]
  Residual activity KP1790: 113%
KP9860 protease [10]
  Residual activity KP9860: 105%

## CC(C)C[C@H](NC(=O)[C@@H](NC(=O)N[C@@H](Cc1ccccc1)C(=O)O)[C@@H]1CCN=C(N)N1)C(=O)N[C@H](C=O)Cc1ccccc1 [Chymostatin]
KP43 protease [4]
  Residual activity (%) KP43: 87%
KP1790 protease [5]
  Residual activity (%) KP1790: 87%
[7]
  effect of inhibitor on activity: inhibited
KP9860 protease [6]; pH 7
  Residual activity (%) KP9860: 80%

## [Cl-].[Cl-].[Zn+2] [ZnCl2]
KP43 protease [1]; [14]
  Residual activity (%) KP43: 85%
KP9860 protease [2]; [14]
  Residual activity (%) KP9860: 91%
KP1790 protease [3]; [14]
  Residual activity (%) KP1790: 94%

## CoCl2
KP43 protease [1]; pH 10
  Residual activity (%) KP43: 91%
KP9860 protease [2]; pH 10
  Residual activity (%) KP9860: 98%
KP1790 protease [3]; pH 10
  Residual activity (%) KP1790: 101%

## O=C(O)CN(CCOCCOCCN(CC(=O)O)CC(=O)O)CC(=O)O [EGTA, ethyleneglycoltetraacetic acid]
KP43 protease [4]
  Residual activity (%) KP43: 92%
KP1790 protease [5]
  Residual activity (%) KP1790: 91%
KP9860 protease [6]; [13]
  Residual activity (%) KP9860: 90%

## O[C@H](CS)[C@H](O)CS (racemic) [DTT, dithiothreitol]
KP43 protease [4]
  Residual activity (%) KP43: 104%
KP1790 protease [5]
  Residual activity (%) KP1790: 102%
KP9860 protease [6]; [13]
  Residual activity (%) KP9860: 105%

## CC(C)C[C@H](NC(=O)[C@H]1O[C@@H]1C(=O)O)C(=O)NCCCCN=C(N)N [E-64]
KP43 protease [4]
  Residual activity (%) KP43: 104%
KP1790 protease [5]
  Residual activity (%) KP1790: 99%
KP9860 protease [6]; pH 7
  Residual activity (%) KP9860: 103%

## CCN1C(=O)C=CC1=O [NEM, N-ethylmaleimide]
KP43 protease [4]
  Residual activity (%) KP43: 97%
KP1790 protease [5]
  Residual activity (%) KP1790: 100%
KP9860 protease [6]; pH 7
  Residual activity (%) KP9860: 100%

## Na linear alkylbenzenesulfonate [Na linear alkylbenzenesulfonate (LAS)]
KP43 protease [8]
  Residual activity KP43: 100%
KP1790 protease [9]
  Residual activity KP1790: 88%
KP9860 protease [10]
  Residual activity KP9860: 100%

## [Cl][Hg][Cl] [HgCl2, mercury chloride]
KP43 protease [1]; [14]
  Residual activity (%) KP43: 38%
KP9860 protease [2]; [14]
  Residual activity (%) KP9860: 33%
KP1790 protease [3]; [14]
  Residual activity (%) KP1790: 37%
[11]
  effect of metal salt on activity: inhibited

## Na polyoxyethylene alkylsulfate [Na polyoxyethylene alkylsulfate (ES)]
KP43 protease [8]
  Residual activity KP43: 101%
KP1790 protease [9]
  Residual activity KP1790: 102%
KP9860 protease [10]
  Residual activity KP9860: 104%

## Na α-olefinsulfonate [Na α-olefinsulfonate (AOS)]
KP43 protease [8]
  Residual activity KP43: 100%
KP1790 protease [9]
  Residual activity KP1790: 111%
KP9860 protease [10]
  Residual activity KP9860: 100%

## O=[N+]([O-])[O-].[Ag+] [AgNO3, silver nitrate]
KP43 protease [1]; [14]
  Residual activity (%) KP43: 66%
KP9860 protease [2]; [14]
  Residual activity (%) KP9860: 45%
KP1790 protease [3]; [14]
  Residual activity (%) KP1790: 70%
[11]
  effect of metal salt on activity: inhibited

## c1cnc2c(c1)ccc1cccnc12 [o-Phenanthroline]
KP43 protease [4]
  Residual activity (%) KP43: 100%
KP1790 protease [5]
  Residual activity (%) KP1790: 103%
KP9860 protease [6]; [13]
  Residual activity (%) KP9860: 100%

## [Cl][Ni][Cl] [NiCl2]
KP43 protease [1]; [14]
  Residual activity (%) KP43: 92%
KP9860 protease [2]; [14]
  Residual activity (%) KP9860: 96%
KP1790 protease [3]; [14]
  Residual activity (%) KP1790: 95%

## [Cl][Fe]([Cl])[Cl] [FeCl3]
KP43 protease [1]; [14]
  Residual activity (%) KP43: 93%
KP9860 protease [2]; [14]
  Residual activity (%) KP9860: 96%
KP1790 protease [3]; [14]
  Residual activity (%) KP1790: 113%
